The results in this text go back to publication PMC9504244, “Lysophosphatidylinositol Induced Morphological Changes and Stress Fiber Formation through the GPR55-RhoA-ROCK Pathway” (International Journal of Molecular Sciences, 2022).

The assay concerns the target GPR55 (Homo sapiens, UniProt Q9Y2T6). As to the kind of experiment: cell rounding, dose response, GPR55-expressing vs empty-vector HEK293 cells. The assay is classed as cell-based.

Chain of GPR55 (Q9Y2T6 whole entry): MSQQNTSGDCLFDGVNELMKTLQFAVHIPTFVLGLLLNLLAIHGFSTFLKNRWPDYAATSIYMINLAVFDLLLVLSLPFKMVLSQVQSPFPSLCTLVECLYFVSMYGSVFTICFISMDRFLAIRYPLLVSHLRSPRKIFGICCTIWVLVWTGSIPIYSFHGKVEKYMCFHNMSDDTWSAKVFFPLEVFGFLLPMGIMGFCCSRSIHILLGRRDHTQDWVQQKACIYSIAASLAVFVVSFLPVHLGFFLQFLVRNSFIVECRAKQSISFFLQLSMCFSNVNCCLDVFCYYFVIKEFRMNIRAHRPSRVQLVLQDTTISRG

Consider `Cc1c(C(=O)NN2CCCCC2)nn(-c2ccc(Cl)cc2Cl)c1-c1ccc(Cl)cc1` [SR141716A], for which the “cell rounding, dose response, GPR55-expressing vs empty-vector HEK293 cells” value was “cell rounding induced by AM251 and SR141716A was not observed in empty vector-transfected cells”.
